One compound from article PMC3517478 (BMC Neurology, 2012) can be followed below.

For test [1], the target named is T1, human α1R271L-GlyR expressed in HEK 293 cells (Homo sapiens, UniProt P23415, R299L).
T1 sequence (P23415 29-457 R299L): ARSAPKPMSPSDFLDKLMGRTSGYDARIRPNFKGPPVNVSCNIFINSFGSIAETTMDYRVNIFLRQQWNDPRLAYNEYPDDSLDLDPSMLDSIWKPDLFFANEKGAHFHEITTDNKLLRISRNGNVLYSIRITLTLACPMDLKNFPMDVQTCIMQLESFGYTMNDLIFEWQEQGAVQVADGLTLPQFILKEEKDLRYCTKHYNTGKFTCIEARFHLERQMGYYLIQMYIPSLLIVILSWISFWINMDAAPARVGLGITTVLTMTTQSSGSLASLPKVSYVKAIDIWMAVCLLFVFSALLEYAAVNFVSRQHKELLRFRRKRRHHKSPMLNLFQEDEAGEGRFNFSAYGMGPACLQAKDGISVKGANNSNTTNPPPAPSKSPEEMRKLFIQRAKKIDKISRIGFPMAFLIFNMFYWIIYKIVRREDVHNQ
Conditions: R271L. The source says: (§1) Human α1-, α1R271Q-, α1R271L-, α1R271K and α1S267I-GlyR subunits were transiently transfected into human embryonic kidney cells (HEK 293, ATCC, Manassas, USA). The wild type α1-GlyR -cDNA was cloned in pCIS2 (Invitrogen, San Diego, USA) vector and provided by Prof. Heinrich Betz (Max-Planck-Institut für Hirnforschung, Frankfurt am Main, Germany). For the plasmid cDNA of the mutated α1R271Q-, α1R271L-, α1R271K- and α1S267I-GlyR the eukaryotic expression vector pcDNA1amp (Invitrogen, San Diego, USA), under the control of cytomegalovirus promoter, was used. For site-directed mutagenesis, single stranded template cDNA was synthesized from M13 origin of replication and the mutations of arginine residue (R) at position 271 to glutamine (R271Q), leucine (R271L) or lysine (R271K) and mutation of serine residue (S) at position 267 to isoleucine (S267I) were generated using standard procedures. […] Wild type and mutated α1-GlyR subunits efficiently form homomeric receptors in heterologous expression systems.
(§2) HEK 293 cells were cultured in medium containing HAMS’F-12 (Biochrom, Berlin, Germany), supplemented with 10% fetal bovine serum (FBS, Biochrom, Berlin, Germany), 100 U ml^–1 penicillin and 100μgml^–1 streptomycin (Gibco BRL, Life Technologies, Karlsruhe, Germany) at 37°C in a 5% CO2/ 95% air incubator. For transfection cells were suspended in a buffer containing 50mM K2HPO4 (Fluka BioChemika, Seelze, Germany), 20mMK-acetate (Sigma-Aldrich, Taufkirchen, Germany) and 25mM MgSO4 (Sigma-Aldrich, Taufkirchen, Germany) at pH 7.35. To visualize transfected cells, they were co-transfected with cDNA encoding for enhanced green fluorescent protein (EGFP) contained in the pEGFP-N1 expression vector (Clontech, Palo Alto, USA). The corresponding cDNA (5μg for the GlyR and 2.5μg for EGFP) was added to 400μl of the cell suspension and the mixture was rapidly transferred into the electroporation cuvette. For transfection we used an electroporation device by EquiBio (Kent, UK) and a 4mm aluminum electrode electroporation cuvette (Peqlab, Erlangen, Germany).
(§3) The phenol derivative 4-chloropropofol ([…]) was provided as pure substance by Prof. Paul M. O’Neill (University of Liverpool, England), prepared as light-protected 1M stock solution in ethanol (EtOH, J.T.Baker, Griesheim, Germany) and stored in glass vessels at −20°C.
(§4) Drug-containing vials were vigorously vortexed for 30min. Patch electrodes were filled with an intracellular solution of [mM] KCl 140, MgCl2 2, EGTA 11, HEPES 10, glucose 11, CaCl2 1 with pH 7.3, adjusted with 1 M KOH and a bath solution contained [mM] NaCl 162, KCl 5.31, NaHPO4 0.85, KH2PO4 0.22, HEPES 15, glucose 6.11, pH 7.4 adjusted with 1 M NaOH. Osmolarity of both solutions was set at 280–300 mOsmol.
(§5) Whole-cell experiments were performed at a holding potential of −30 mV with a mean seal resistance of 1 GΩ. […] A fast liquid filament switch technique was used for the application of the agonist, presented in pulses of 2 s duration every 20 s. The liquid filament switch technique is able to exchange the solution passing an outside-out patch or small whole-cells within 1–2 ms. We calculated flow rate of background solution through the chamber with 3,4 ml/min corresponding to 4% of maximal pump rate. With regard to the chamber volume of 100 μl the exchange solution time within the chamber was assessed to approximately […], dependent on cell size accordingly. Piezo-switch and small diameter capillary (ID 0.15 mm) within the measurement chamber promoted the millisecond solution exchange. […] The induced current (I) by this saturating control solution was defined as Icontrol. […] The stability of the seal was controlled during the complete experiment via control of the seal resistance. A variation of 10-20% of the basic value was regarded as tolerable.

Test [2] concerns the target T2, human α1R271Q-GlyR expressed in HEK 293 cells (Homo sapiens, UniProt P23415, R299Q).
T2 sequence (P23415 29-457 R299Q): T1 sequence (P23415 29-457 R299L) with L271Q
Conditions: R271Q.
From the text: as §1, §2, §3, §4, §5

[3] abbreviates: 10-90% of Imax, monoexponential fit.

Residue numbers refer to the chain shown, from its start.

Regarding `NCC(=O)O` [glycine], the “Current amplitude [% of mean WT current amplitude] ± SEM” value stood at 20.5±12% in test [1] and 7.5±15% in test [2]. In addition, the figures for the “nH ± SEM (Hill coefficient), glycine activation” value in test [1] and in test [2] were 1.8±0.7 and 1.0±0.6, respectively. The “Rise time ± SEM” value came out at 998 ± 129 ms in test [1] (setting [3]) and 673 ± 224 ms in test [2] (setting [3]). In addition, in test [1] (saturating glycine 300 mM), the “Mean current amplitude ± SEM” value is 336±51 pA. For the same compound, in test [2] (1 mM glycine), the current peaks result was “less than 50 pA”. Also, the “activation by low glycine concentrations” value in test [2] (10-100 μM glycine) is given as “lacks activation”.
